{
  "source": "paper PMC6364417",
  "about": "“Kinase inhibitor library screening identifies synergistic drug combinations effective in sensitive and resistant melanoma cells” (Journal of Experimental & Clinical Cancer Research : CR, 2019)",
  "experiment_in_all_cases": "Kinase inhibitor library screening, PrestoBlue cell viability, 1 or 10 μM, 72 h",
  "key": {"[1]": {"system": "501Mel-XP cells (Vemurafenib-resistant)", "details": "501Mel XP, in %", "experimental": "(§1) After 72 h of treatment, cell viability was assessed using the PrestoBlue Cell Viability Reagent (ThermoFisher Scientific). Measurements were performed with the CLARIOstar Monochromator microplate reader (BMG Labtech).\n(§2) Kinase inhibitor library screening. […] Each cell line was treated in its sensitive form (parental), and also as 2 resistant derivatives, which were made resistant to either Vemurafenib (XP) or Dabrafenib (GP). Drugs were added at 2 different concentrations, 1 and 10 μM, for 72 h and cell viability was assessed using the PrestoBlue Cell Viability assay. Results are depicted as % viability compared to untreated cells. Each cell line was analyzed at least in duplicate. […] (XLSX 95 kb)"}, "[2]": {"system": "IGR37-XP cells (Vemurafenib-resistant)", "details": "IGR37 XP", "experimental": "as §1, §2"}, "[3]": {"system": "IGR37-GP cells (Dabrafenib-resistant)", "details": "IGR37 GP", "experimental": "as §1, §2"}, "501Mel cells (parental)": {"system": "501Mel cells (parental)", "details": "501Mel Parental, in %", "experimental": "as §1, §2"}, "[4]": {"system": "501Mel-GP cells (Dabrafenib-resistant)", "details": "501Mel GP, in %", "experimental": "as §1, §2"}, "IGR37 cells (parental)": {"system": "IGR37 cells (parental)", "details": "IGR37 Parental, in %", "experimental": "as §1, §2"}, "[5]": {"system": "A375-XP cells (Vemurafenib-resistant)", "details": "A375 XP", "experimental": "as §1, §2"}, "A375 cells (parental)": {"system": "A375 cells (parental)", "details": "A375 Parental", "experimental": "as §1, §2"}, "[6]": {"system": "A375-GP cells (Dabrafenib-resistant)", "details": "A375 GP", "experimental": "as §1, §2"}},
  "data": [
    {"smiles": "CC(O)C(=O)O.CC(O)C(=O)O.CN1CCN(c2ccc3nc(-c4c(N)c5c(F)cccc5[nH]c4=O)[nH]c3c2)CC1", "values": [
      {"measurement": "cell viability, 501Mel XP, 1μΜ", "setting": "[1]; 1μΜ, 72 h", "result": 91.1},
      {"measurement": "cell viability, 501Mel XP, 10μΜ", "setting": "[1]; 10μΜ, 72 h", "result": -0.0481},
      {"measurement": "cell viability, IGR37 XP, 10μΜ", "setting": "[2]; 10μΜ, 72 h", "result": 33, "unit": "%"},
      {"measurement": "cell viability, IGR37 XP, 1μΜ", "setting": "[2]; 1μΜ, 72 h, in %", "result": 106.9},
      {"measurement": "cell viability, IGR37 GP, 10μΜ", "setting": "[3]; 10μΜ, 72 h", "result": 46.5, "unit": "%"},
      {"measurement": "cell viability, IGR37 GP, 1μΜ", "setting": "[3]; 1μΜ, 72 h, in %", "result": 106.1},
      {"measurement": "cell viability, 501Mel Parental, 1μΜ", "setting": "501Mel cells (parental); 1μΜ, 72 h", "result": 106.3},
      {"measurement": "cell viability, 501Mel Parental, 10μΜ", "setting": "501Mel cells (parental); 10μΜ, 72 h", "result": 0.756},
      {"measurement": "cell viability, 501Mel GP, 1μΜ", "setting": "[4]; 1μΜ, 72 h", "result": 100.0},
      {"measurement": "cell viability, 501Mel GP, 10μΜ", "setting": "[4]; 10μΜ, 72 h", "result": 0.0395},
      {"measurement": "cell viability, IGR37 Parental, 1μΜ", "setting": "IGR37 cells (parental); 1μΜ, 72 h", "result": 105.9},
      {"measurement": "cell viability, IGR37 Parental, 10μΜ", "setting": "IGR37 cells (parental); 10μΜ, 72 h", "result": 76.1},
      {"measurement": "cell viability, A375 XP, 10μΜ", "setting": "[5]; 10μΜ, 72 h, in %", "result": 59.2},
      {"measurement": "cell viability, A375 Parental, 1μΜ", "setting": "A375 cells (parental); 1μΜ, 72 h, in %", "result": 106.9},
      {"measurement": "cell viability, A375 Parental, 10μΜ", "setting": "A375 cells (parental); 10μΜ, 72 h, in %", "result": 48.0},
      {"measurement": "cell viability, A375 GP, 1μΜ", "setting": "[6]; 1μΜ, 72 h, in %", "result": 91.8},
      {"measurement": "cell viability, A375 GP, 10μΜ", "setting": "[6]; 10μΜ, 72 h, in %", "result": 46.4}
    ]},
    {"smiles": "COc1cc(Nc2ncc(F)c(Nc3ccc4c(n3)N(COP(=O)([O-])[O-])C(=O)C(C)(C)O4)n2)cc(OC)c1OC.[Na+].[Na+]", "values": [
      {"measurement": "cell viability (kinase inhibitor library screening)", "setting": "[1]; 1μΜ", "result": 98.8},
      {"measurement": "cell viability (kinase inhibitor library screening)", "setting": "[1]; 10μΜ", "result": 37.9},
      {"measurement": "cell viability (kinase inhibitor library screening)", "setting": "[2]; 1μΜ, in %", "result": 94.1},
      {"measurement": "cell viability (kinase inhibitor library screening)", "setting": "[2]; 10μΜ, in %", "result": 20.4},
      {"measurement": "cell viability (kinase inhibitor library screening)", "setting": "[3]; 1μΜ, in %", "result": 89.3},
      {"measurement": "cell viability (kinase inhibitor library screening)", "setting": "[3]; 10μΜ, in %", "result": 37.8},
      {"measurement": "cell viability (kinase inhibitor library screening)", "setting": "501Mel cells (parental); 10μΜ", "result": 84.1},
      {"measurement": "cell viability (kinase inhibitor library screening)", "setting": "[4]; 1μΜ", "result": 98.3},
      {"measurement": "cell viability (kinase inhibitor library screening)", "setting": "[4]; 10μΜ", "result": 70.8},
      {"measurement": "cell viability (kinase inhibitor library screening)", "setting": "IGR37 cells (parental); 1μΜ", "result": 103.8},
      {"measurement": "cell viability (kinase inhibitor library screening)", "setting": "IGR37 cells (parental); 10μΜ", "result": 87.6},
      {"measurement": "cell viability (kinase inhibitor library screening)", "setting": "[5]; 10μΜ, in %", "result": 70.0},
      {"measurement": "cell viability (kinase inhibitor library screening)", "setting": "A375 cells (parental); 10μΜ, in %", "result": 56.1},
      {"measurement": "cell viability (kinase inhibitor library screening)", "setting": "[6]; 1μΜ, in %", "result": 95.3},
      {"measurement": "cell viability (kinase inhibitor library screening)", "setting": "[6]; 10μΜ, in %", "result": 57.6}
    ]},
    {"smiles": "O=C1NC(=O)C(=Cc2ccc(-c3ccc(F)cc3)o2)S1", "note": "(stereo in doubt) [CAY10505]", "values": [
      {"measurement": "Cell viability in kinase inhibitor library screening, 501Mel XP, 1μΜ", "setting": "[1]; 1μΜ, 72 h", "result": 99.8},
      {"measurement": "Cell viability in kinase inhibitor library screening, 501Mel XP, 10μΜ", "setting": "[1]; 10μΜ, 72 h", "result": 90.3},
      {"measurement": "Cell viability in kinase inhibitor library screening, IGR37 XP, 10μΜ", "setting": "[2]; 10μΜ, 72 h", "result": 77.3, "unit": "%"},
      {"measurement": "Cell viability in kinase inhibitor library screening, IGR37 GP, 10μΜ", "setting": "[3]; 10μΜ, 72 h", "result": 94.4, "unit": "%"},
      {"measurement": "Cell viability in kinase inhibitor library screening, IGR37 GP, 1μΜ", "setting": "[3]; 1μΜ, 72 h, in %", "result": 98.2},
      {"measurement": "Cell viability in kinase inhibitor library screening, 501Mel Parental, 1μΜ", "setting": "501Mel cells (parental); 1μΜ, 72 h", "result": 99.8},
      {"measurement": "Cell viability in kinase inhibitor library screening, 501Mel Parental, 10μΜ", "setting": "501Mel cells (parental); 10μΜ, 72 h", "result": 97.3},
      {"measurement": "Cell viability in kinase inhibitor library screening, 501Mel GP, 1μΜ", "setting": "[4]; 1μΜ, 72 h", "result": 96.4},
      {"measurement": "Cell viability in kinase inhibitor library screening, 501Mel GP, 10μΜ", "setting": "[4]; 10μΜ, 72 h", "result": 89.6},
      {"measurement": "Cell viability in kinase inhibitor library screening, IGR37 Parental, 1μΜ", "setting": "IGR37 cells (parental); 1μΜ, 72 h", "result": 103.7},
      {"measurement": "Cell viability in kinase inhibitor library screening, IGR37 Parental, 10μΜ", "setting": "IGR37 cells (parental); 10μΜ, 72 h", "result": 103.3},
      {"measurement": "Cell viability in kinase inhibitor library screening, A375 XP, 1μΜ", "setting": "[5]; 72 h", "result": 107.0},
      {"measurement": "Cell viability in kinase inhibitor library screening, A375 XP, 10μΜ", "setting": "[5]; 10μΜ, 72 h", "result": 110.5},
      {"measurement": "Cell viability in kinase inhibitor library screening, A375 Parental, 10μΜ", "setting": "A375 cells (parental); 10μΜ, 72 h", "result": 93.9},
      {"measurement": "Cell viability in kinase inhibitor library screening, A375 Parental, 1μΜ", "setting": "A375 cells (parental); 1μΜ, 72 h", "result": 105.4},
      {"measurement": "Cell viability in kinase inhibitor library screening, A375 GP, 1μΜ", "setting": "[6]; 1μΜ, 72 h", "result": 99.9}
    ]},
    {"smiles": "Cn1cnc(N)c2ncnc1-2", "note": "[3-Methyladenine]", "values": [
      {"measurement": "Cell viability in kinase inhibitor library screening, 501Mel XP, 10μΜ", "setting": "[1]; 10μΜ, 72 h", "result": 87.7},
      {"measurement": "Cell viability in kinase inhibitor library screening, IGR37 GP, 10μΜ", "setting": "[3]; 10μΜ, 72 h", "result": 97, "unit": "%"},
      {"measurement": "Cell viability in kinase inhibitor library screening, IGR37 GP, 1μΜ", "setting": "[3]; 1μΜ, 72 h, in %", "result": 107.1},
      {"measurement": "Cell viability in kinase inhibitor library screening, 501Mel Parental, 1μΜ", "setting": "501Mel cells (parental); 1μΜ, 72 h", "result": 107.2},
      {"measurement": "Cell viability in kinase inhibitor library screening, 501Mel Parental, 10μΜ", "setting": "501Mel cells (parental); 10μΜ, 72 h", "result": 107.1},
      {"measurement": "Cell viability in kinase inhibitor library screening, 501Mel GP, 10μΜ", "setting": "[4]; 10μΜ, 72 h", "result": 93.3},
      {"measurement": "Cell viability in kinase inhibitor library screening, IGR37 Parental, 1μΜ", "setting": "IGR37 cells (parental); 1μΜ, 72 h", "result": 108.7},
      {"measurement": "Cell viability in kinase inhibitor library screening, IGR37 Parental, 10μΜ", "setting": "IGR37 cells (parental); 10μΜ, 72 h", "result": 106.4},
      {"measurement": "Cell viability in kinase inhibitor library screening, A375 XP, 1μΜ", "setting": "[5]; 72 h", "result": 106.2},
      {"measurement": "Cell viability in kinase inhibitor library screening, A375 XP, 10μΜ", "setting": "[5]; 10μΜ, 72 h", "result": 109.5},
      {"measurement": "Cell viability in kinase inhibitor library screening, A375 Parental, 10μΜ", "setting": "A375 cells (parental); 10μΜ, 72 h", "result": 100.5},
      {"measurement": "Cell viability in kinase inhibitor library screening, A375 Parental, 1μΜ", "setting": "A375 cells (parental); 1μΜ, 72 h", "result": 112.2},
      {"measurement": "Cell viability in kinase inhibitor library screening, A375 GP, 1μΜ", "setting": "[6]; 1μΜ, 72 h", "result": 104.5}
    ]}
  ]
}
